According to paper PMC12677607, “Identification of a Pair of Linear or Cyclic Naturally Inspired Bifunctional Lipopeptide Antibiotics That Overcome Antimicrobial Resistance” (Advanced Science, 2025):
Values after ≈ are worked out from the molar mass of the structure shown. Bridge positions count the residues as written; N and C are the ends. Square brackets hold non-standard residues; d marks the D form. Peptide text beside a SMILES is read from it. * marks the point of attachment. Myristoyl = CCCCCCCCCCCCCC(=O)*; dOrn = NCCC[C@@H](N)C(=O)O; Orn = NCCC[C@H](N)C(=O)O

Legend:
[1] = test system: Escherichia coli DH5α; assay: MIC assay (broth micro-dilution); format: cell-based; settings: Table S11; LB broth, 37 °C, 16 h, n = 2
Experimental: (§1) All MIC assays were performed two independent times (n = 2) in 96‐well plates using a broth micro‐dilution method. The lowest concentration of that inhibited visible microbial growth was recorded as the MIC value.
(§2) For most of bacterial strains, overnight cultures were diluted 5000‐fold in LB broth. For E. faecium and S. aureus, overnight cultures were diluted 1000‐ and 10000‐fold in LB broth, respectively. 100 µL of diluted cells was mixed with 100 µL of LB broth containing each peptide ranging from 64 to 0.125 µg mL^−1 at 2‐fold serial dilutions.

[2] = test system: Shigella Castellani LXX; assay: MIC assay (broth micro-dilution); format: cell-based; settings: Table S11; LB broth, 37 °C, 16 h, n = 2
Experimental: as §1, §2

[3] = test system: Acinetobacter baumannii 1104008; assay: microbe, parasite or virus in culture; format: cell-based
Experimental: as §1, §2

[4] = test system: Acinetobacter baumannii ATCC 17978; assay: microbe, parasite or virus in culture; format: cell-based; settings: ATCC 17978, 16 h
Experimental: as §1, §2

[5] = test system: Acinetobacter baumannii ATCC 19606; assay: microbe, parasite or virus in culture; format: cell-based; settings: ATCC 19606, 16 h
Experimental: as §1, §2

[6] = test system: Acinetobacter baumannii P53; assay: microbe, parasite or virus in culture; format: cell-based; settings: Table S11; LB broth, 37 °C, 16 h, n = 2
Experimental: as §1, §2

[7] = test system: Enterococcus faecalis 26; assay: microbe, parasite or virus in culture; format: cell-based; settings: 26, 16 h
Experimental: as §1, §2

[8] = test system: Enterococcus faecalis 28; assay: microbe, parasite or virus in culture; format: cell-based; settings: 28, 16 h
Experimental: as §1, §2

[9] = test system: Enterococcus faecalis ATCC 29212; assay: microbe, parasite or virus in culture; format: cell-based; settings: ATCC 29212, 16 h
Experimental: as §1, §2

[10] = test system: Enterococcus faecium 35682; assay: microbe, parasite or virus in culture; format: cell-based; settings: 35682, 16 h
Experimental: as §1, §2

[11] = test system: Klebsiella pneumoniae ATCC 13883; assay: microbe, parasite or virus in culture; format: cell-based; settings: ATCC 13883, 16 h
Experimental: as §1, §2

[12] = test system: Klebsiella pneumoniae CRKP 5452; assay: microbe, parasite or virus in culture; format: cell-based
Experimental: as §1, §2

[13] = test system: Klebsiella pneumoniae CRKP HS11286; assay: microbe, parasite or virus in culture; format: cell-based; settings: CRKP HS11286, 16 h
Experimental: as §1, §2

[14] = test system: Klebsiella pneumoniae NCTC 5056; assay: microbe, parasite or virus in culture; format: cell-based; settings: NCTC 5056, 16 h
Experimental: as §1, §2

[15] = test system: Pseudomonas aeruginosa ATCC 9027; assay: microbe, parasite or virus in culture; format: cell-based; settings: ATCC 9027, 16 h
Experimental: as §1, §2

[16] = test system: Pseudomonas aeruginosa PAO1; assay: microbe, parasite or virus in culture; format: cell-based; settings: PAO1, 16 h
Experimental: as §1, §2

[17] = test system: Salmonella enterica ATCC 14028; assay: microbe, parasite or virus in culture; format: cell-based; settings: ATCC 14028, 16 h
Experimental: as §1, §2

[18] = test system: Salmonella typhimurium LXX; assay: microbe, parasite or virus in culture; format: cell-based; settings: murium LXX, 16 h
Experimental: as §1, §2

[19] = test system: Staphylococcus aureus ATCC 25923; assay: microbe, parasite or virus in culture; format: cell-based; settings: ATCC 25923, 16 h
Experimental: as §1, §2

[20] = test system: Staphylococcus aureus ATCC 6538; assay: microbe, parasite or virus in culture; format: cell-based; settings: ATCC 6538, 16 h
Experimental: as §1, §2

[21] = test system: Staphylococcus aureus Newman; assay: microbe, parasite or virus in culture; format: cell-based; settings: Newman, 16 h
Experimental: as §1, §2

[22] = test system: Staphylococcus aureus USA300; assay: microbe, parasite or virus in culture; format: cell-based; settings: for antibacterial activity (MIC) S. aureus USA300: Figure S127b, wild type
Experimental: as §1, §2

[23] = test system: Streptococcus mutans ATCC 25175; assay: microbe, parasite or virus in culture; format: cell-based; settings: ATCC 25175, 16 h
Experimental: as §1, §2

[24] = test system: Streptococcus pyogenes ATCC 19615; assay: microbe, parasite or virus in culture; format: cell-based
Experimental: as §1, §2

[25] = test system: Vibrio alginolyticus XSBZ14; assay: microbe, parasite or virus in culture; format: cell-based; settings: 16 h
Experimental: as §1, §2

[26] = test system: Candida albicans ATCC 10231; assay: MIC assay (YPD broth); format: cell-based
Experimental: as §1
(§3) For fungal strains, overnight cultures were diluted 2000‐fold in YPD broth. 100 µL of diluted cells was mixed with 100 µL of YPD broth containing each peptide ranging from […] 64 to 0.125 µg mL^−1 at 2‐fold serial dilutions.

[27] = test system: Candida albicans ATCC 64550; format: cell-based; settings: ATCC 64550, 16 h
Experimental: as §1, §3

[28] = test system: HeLa cells; assay: Cytotoxicity assay (CCK-8); format: cell-based, human; settings: 48 h
Experimental: The cytotoxicity of each synAQU peptide was assessed using a cell counting kit‐8 (CCK‐8) assay. HeLa cells were first seeded in a 96‐well flat‐bottom microtiter plate with a density of ∼5000 cells per well and incubated in the DMEM medium supplemented with 10% FBS at 37 °C with 5% CO2 for 24 h. […] All cytotoxicity experiments were done in triplicate (n = 3) and repeated two independent times (n = 2).

[29] = test system: four Gram-negative bacteria, four Gram-positive bacteria, and one fungal pathogen; assay: Initial antimicrobial assay of 17 synAQUs; format: cell-based; settings: MIC up to 64 µg mL^−1, Figure 3a
Experimental: as §1, §2, §3

[30] = test system: S. aureus USA300 Cls2A338stop; assay: MIC against telomycin-resistant mutant; format: cell-based; settings: for antibacterial activity (MIC) S. aureus USA300 Cls2A338stop: Figure S127b, telomycin-resistant mutant
Experimental: as §1, §2
(§4) Overnight cultures S. aureus USA300 were diluted 10000‐fold in LB broth, and 100 µL of dilute cell suspension was added to 96‐well plates containing 100 µL serially diluted aquicidine C4, telomycin, and daptomycin (with 15 mM CaCl2). Overnight cultures K. pneumoniae CRKP5452 were diluted 5000‐fold in LB broth, and 100 µL of dilute cell suspension was added to 96‐well plates containing 100 µL serially diluted aquicidine L and colistin. After an incubation of 24 h at 37 °C, the MIC value was determined. […] The MIC value was recorded as described above, and the process was repeated daily for 21 days. Experiments were performed two independent times (n = 2).
(§5) Single‐nucleotide polymorphisms (SNPs) for telomycin‐, daptomycin‐ or colistin‐resistant mutants were identified using SNIPPY by mapping DNBSEQ‐seq reads to the reference genome of S. aureus USA300 or K. pneumoniae CRKP5452.

[31] = test system: S. aureus USA300 MprFT345A; assay: MIC against daptomycin-resistant mutant; format: cell-based; settings: for antibacterial activity (MIC) S. aureus USA300 MprFT345A: Figure S127b, daptomycin-resistant mutant
Experimental: as §1, §2, §4, §5

[32] = Table S11, LB broth, 37 °C, 16 h, n = 2

## CCCCCCCCCCCCCC(=O)N[C@@H](CCCN)C(=O)N[C@H](Cc1ccc(O)cc1)C(=O)N[C@@H](C(=O)N[C@H]1C(=O)N[C@H](CCCN)C(=O)N[C@@H](CCCN)C(=O)N[C@H](C(C)C)C(=O)N[C@@H]([C@@H](C)CC)C(=O)N[C@@H](CC(C)C)C(=O)N[C@H](CCCN)C(=O)N[C@@H]([C@@H](C)O)C(=O)N[C@@H](C)C(=O)O[C@H]1C)C(C)C [synAQU6-C4] (Myristoyl-[Orn][dY][dV][dT][dOrn][Orn][dV]IL[dOrn]TA; ester 4-C)
[1]
  MIC Escherichia coli DH5α: 8 µg/mL (≈ 5.24 µM)
[2]
  MIC Shigella Castellani LXX: > 64 µg/mL
[3]; [32]
  MIC Acinetobacter baumannii 1104008: 32 µg/mL (≈ 20.9 µM)
[4]
  MIC Acinetobacter baumannii ATCC 17978: 32 µg/mL (≈ 20.9 µM)
[5]
  MIC Acinetobacter baumannii ATCC 19606: > 64 µg/mL
[6]
  MIC Acinetobacter baumannii P53: > 64 µg/mL
[7]
  MIC Enterococcus faecalis 26: 2 µg/mL (≈ 1.31 µM)
[8]
  MIC Enterococcus faecalis 28: > 64 µg/mL
[9]
  MIC Enterococcus faecalis ATCC 29212: > 64 µg/mL
[10]
  MIC Enterococcus faecium 35682: 32 µg/mL (≈ 20.9 µM)
[11]
  MIC Klebsiella pneumoniae ATCC 13883: 32 µg/mL (≈ 20.9 µM)
[12]; [32]
  MIC Klebsiella pneumoniae CRKP 5452: 16 µg/mL (≈ 10.5 µM)
[13]
  MIC Klebsiella pneumoniae CRKP HS11286: 32 µg/mL (≈ 20.9 µM)
[14]
  MIC Klebsiella pneumoniae NCTC 5056: 32 µg/mL (≈ 20.9 µM)
[15]
  MIC Pseudomonas aeruginosa ATCC 9027: > 64 µg/mL
[16]
  MIC Pseudomonas aeruginosa PAO1: 16 µg/mL (≈ 10.5 µM)
[17]
  MIC Salmonella enterica ATCC 14028: 32 µg/mL (≈ 20.9 µM)
[18]
  MIC Salmonella typhimurium LXX: 32 µg/mL (≈ 20.9 µM)
[19]
  MIC Staphylococcus aureus ATCC 25923: 16 µg/mL (≈ 10.5 µM)
[20]
  MIC Staphylococcus aureus ATCC 6538: 16 µg/mL (≈ 10.5 µM)
[21]
  MIC Staphylococcus aureus Newman: > 64 µg/mL
[22]; USA300, 16 h
  MIC Staphylococcus aureus USA300: > 64 µg/mL
[23]
  MIC Streptococcus mutans ATCC 25175: 4 µg/mL (≈ 2.62 µM)
[24]; [32]
  MIC Streptococcus pyogenes ATCC 19615: 4 µg/mL (≈ 2.62 µM)
[25]
  MIC Vibrio alginolyticus XSBZ14: > 64 µg/mL
[26]; Table S11, YPD broth, 30 °C, 16 h, n = 2
  MIC Candida albicans ATCC 10231: > 64 µg/mL
[27]
  MIC Candida albicans ATCC 64550: > 64 µg/mL

## CCCCCCCCCCCCCC(=O)N[C@@H](CCCCN)C(=O)N[C@@H](CCCNC(=N)N)C(=O)N[C@@H](CC(C)C)C(=O)N[C@@H](C)C(=O)N[C@@H](CC(C)C)C(=O)N[C@@H]1C(=O)N[C@@H](CC(=O)O)C(=O)N[C@@H](CC(=O)O)C(=O)N[C@@H](C(C)C)C(=O)N[C@@H](CC(N)=O)C(=O)N[C@@H](C(C)C)C(=O)N[C@H](Cc2ccccc2)C(=O)N[C@@H](CC(N)=O)C(=O)O[C@@H]1C [synAQU7-C6] (Myristoyl-KRLALTDDVNV[dF]N; ester 6-C)
[3]; 1104008, 16 h
  MIC (μg/mL) A. baumannii 1104008: > 64 µg/mL
[12]; CRKP 5452, 16 h
  MIC (μg/mL) K. pneumoniae CRKP 5452: > 64 µg/mL
[22]; USA300, 16 h
  MIC (μg/mL) S. aureus USA300: > 64 µg/mL
[24]; ATCC 19615, 16 h
  MIC (μg/mL) S. pyogenes ATCC 19615: > 64 µg/mL
[26]; ATCC 10231, 16 h
  MIC (μg/mL) C. albicans ATCC 10231: > 64 µg/mL
[28]
  MIC (μg/mL) Hela: > 64 µg/mL
[29]
  activity against all nine tested strains: not active

## Daptomycin
[22]
  antibacterial activity (MIC) S. aureus USA300: 1 µg/mL
[30]
  antibacterial activity (MIC) S. aureus USA300 Cls2A338stop: 1 µg/mL
[31]
  antibacterial activity (MIC) S. aureus USA300 MprFT345A: 16 µg/mL
[31]; S. aureus USA300 MprF^T345A vs wild type
  increase in MIC against resistant mutant compared to wild type: 16 fold

## Telomycin
[22]
  antibacterial activity (MIC) S. aureus USA300: 4 µg/mL
[30]
  antibacterial activity (MIC) S. aureus USA300 Cls2A338stop: 128 µg/mL
[30]; S. aureus USA300 Cls2^A338stop vs wild type
  increase in MIC against resistant mutant compared to wild type: 32 fold
[31]
  antibacterial activity (MIC) S. aureus USA300 MprFT345A: 4 µg/mL
